pIC50: −log10 of the molar value.
Experiments:
[1] = test system: phospho-ERK in SW620 (KRAS-G12V) cells; experiment: pERK In Cell Western (ICW) assay (Method B), SW620; assay type: cell-based
Procedure, shortened: (§1)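 Read-out is In-Cell Western phospho-ERK signal divided by DRAQ5 per well, as percent of blank control, fitted with a 4-parameter variable-slope model for IC50. Compounds were dosed as 9-point half-log series for 3 h at 37°C on AGS, GP2D (G12D) or SW620 (G12V) cells plated the day before.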

[2] = biological target: GST-tagged KRAS-G12D (2-169) (Homo sapiens, UniProt P01116, G12D); experiment: Nucleotide exchange assay (NEA), SOS-mediated, HTRF, KRAS G12D; assay type: biochemical; conditions: Table 4; IC50 extracted at 30 min; 20 nM SOScat; read-out: NEA G12D IC50
Procedure, shortened: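 SOS1cat-driven loading of fluorescent GTP-DY-647P1 (150 nM) onto GST-KRAS-G12D (2-169, 0.25 nM) read by time-resolved FRET; SOScat 20 nM, compound preincubated with KRAS 1 h at RT. Signal blanked to no-SOS reactions, normalized to DMSO; IC50 fitted from the 30-min read.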

[3] = biological target: GST-tagged KRAS-G12V (2-169) (Homo sapiens, UniProt P01116, G12V); experiment: Nucleotide exchange assay (NEA), SOS-mediated, HTRF, KRAS G12V; assay type: biochemical; conditions: Table 4; IC50 extracted at 90 min; 80 nM SOS
Procedure, shortened: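 Exchange onto fluorescent GTP-DY-647P1 (150 nM final) catalysed by 80 nM SOS1cat was followed by Tb-anti-GST HTRF at RT for up to 90 min, after 1 h compound pre-incubation with 0.25 nM GST-tagged KRAS-G12V (2-169), pH 7.3. DMSO = 0%, no-SOS blank = 100%; 4-parameter IC50 taken at 90 min.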

[4] = test system: phospho-ERK in GP2D (KRAS-G12D) cells; experiment: pERK In Cell Western (ICW) assay (Method B), GP2D; assay type: cell-based
Procedure, shortened: as §1

[5] = Homo sapiens, SW-620, 3 h, Table 4

GST-tagged KRAS-G12D (2-169), sequence (P01116 2-169 isoform P01116-2 G12D): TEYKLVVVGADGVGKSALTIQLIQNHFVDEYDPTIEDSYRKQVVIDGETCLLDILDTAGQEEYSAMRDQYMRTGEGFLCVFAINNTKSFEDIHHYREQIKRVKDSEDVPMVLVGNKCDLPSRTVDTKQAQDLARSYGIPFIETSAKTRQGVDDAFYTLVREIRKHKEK
GST-tagged KRAS-G12V (2-169), sequence (P01116 2-169 isoform P01116-2 G12V): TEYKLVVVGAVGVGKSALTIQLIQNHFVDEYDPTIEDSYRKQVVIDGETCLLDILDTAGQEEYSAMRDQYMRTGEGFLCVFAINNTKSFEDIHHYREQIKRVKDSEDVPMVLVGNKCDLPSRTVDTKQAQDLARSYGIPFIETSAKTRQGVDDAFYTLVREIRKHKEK

Compound | pIC50 [1, 5] | pIC50 [2] | pIC50 [3] | pIC50 ([4]; GP2d, 3 h, Table 4) | pIC50 ([1]; Table 4, 3 hours) | pIC50 ([4]; Table 4, 3 hours)
CCN(c1nc(OC[C@@]23CCCN2C[C@H](F)C3)nc(N2CC3(CCc4sc(N)c(C#N)c43)C2=O)n1)[C@H](C)c1cccnc1N (stereo partly drawn) [Compound 201, 2-amino-1′-[4-[[(1R)-1-(2-amino-3-pyridyl)ethyl]-ethyl-amino]-6-[[(2R,8S)-2-fluoro-1,2,3,5,6,7-hexahydropyrrolizin-8-yl]methoxy]-1,3,5-triazin-2-yl]-2′-oxo-spiro[5,6-dihydrocyclopenta[b]thiophene-4,3′-azetidine]-3-carbonitrile] | 7.00 to 8.00 | > 8.00 | > 8.00 | 7.00 to 8.00 | – | –
CC(c1ccc(F)nc1N)N(C)c1nc(OC[C@@]23CCCN2C[C@H](F)C3)nc(N2CC3(CCc4sc(N)c(C#N)c43)C2)n1 (stereo partly drawn) [Compound 162, 2-amino-1′-[4-[1-(2-amino-6-fluoro-3-pyridyl)ethyl-methyl-amino]-6-[[(2R,8S)-2-fluoro-1,2,3,5,6,7-hexahydropyrrolizin-8-yl]methoxy]-1,3,5-triazin-2-yl]spiro[5,6-dihydrocyclopenta[b]thiophene-4,3′-azetidine]-3-carbonitrile] | 7.00 to 8.00 | 7.00 to 8.00 | > 8.00 | 6.00 to 7.00 | – | –
C[C@H](c1cccnc1N)N(CC(F)F)c1nc(OC[C@@H]2CCCN2C)nc(N2CC3(C2)SCc2sc(N)c(C#N)c23)n1 [Compound 196, 2′-amino-1-(4-(((R)-1-(2-aminopyridin-3-yl)ethyl)(2,2-difluoroethyl)amino)-6-(((S)-1-methylpyrrolidin-2-yl)methoxy)-1,3,5-triazin-2-yl)-6′H-spiro[azetidine-3,4′-thieno[3,4-b]thiophene]-3′-carbonitrile] | > 8.00 | > 8.00 | > 8.00 | 7.00 to 8.00 | – | –
CC(c1cccnc1N)N(CCO)c1nc(OC[C@@]23CCCN2C[C@H](F)C3)nc(N2CC3(CCc4sc(N)c(C#N)c43)C2)n1 (single isomer, unassigned) [Compound 122A, 2-amino-1′-[4-[[(1*)-1-(2-amino-3-pyridyl)ethyl]-(2-hydroxyethyl)amino]-6-[[(2R,8S)-2-fluoro-1,2,3,5,6,7-hexahydropyrrolizin-8-yl]methoxy]-1,3,5-triazin-2-yl]spiro[5,6-dihydrocyclopenta[b]thiophene-4,3′-azetidine]-3-carbonitrile] | 7.00 to 8.00 | > 8.00 | > 8.00 | > 8.00 | – | –
CN(Cc1cncs1)c1nc(OC[C@@]23CCCN2C[C@H](F)C3)nc(N2CC3(CCc4sc(N)c(C#N)c43)C2)n1 [Compound 152, 2-amino-1′-[4-[[(2R,8S)-2-fluoro-1,2,3,5,6,7-hexahydropyrrolizin-8-yl]methoxy]-6-[methyl(thiazol-5-ylmethyl)amino]-1,3,5-triazin-2-yl]spiro[5,6-dihydrocyclopenta[b]thiophene-4,3′-azetidine]-3-carbonitrile] | 4.70 to 6.00 | 4.70 to 6.00 | 6.00 to 7.00 | 4.70 to 6.00 | – | –
CC(c1cccnc1N)N(C)c1nc(OC[C@@]23CCCN2C[C@H](F)C3)nc(N2CC3(CCc4sc(N)c(C#N)c43)C2)n1 (single isomer, unassigned) [Compound 100B, 2-amino-1′-[4-[[(1*)-1-(2-amino-3-pyridyl)ethyl]-methyl-amino]-6-[[(2R,8S)-2-fluoro-1,2,3,5,6,7-hexahydropyrrolizin-8-yl]methoxy]-1,3,5-triazin-2-yl]spiro[5,6-dihydrocyclopenta[b]thiophene-4,3′-azetidine]-3-carbonitrile] | – | 7.00 to 8.00 | > 8.00 | – | 7.00 to 8.00 | 6.00 to 7.00
CCN(c1nc(OC[C@@]23CCCN2C[C@H](F)C3)nc(N2CC3(C2)SCc2sc(N)c(C#N)c23)n1)C(C)c1nccnc1N (single isomer, unassigned) [Compound 168A, 2-amino-1′-[4-[[(1*)-1-(3-aminopyrazin-2-yl)ethyl]-ethyl-amino]-6-[[(2R,8S)-2-fluoro-1,2,3,5,6,7-hexahydropyrrolizin-8-yl]methoxy]-1,3,5-triazin-2-yl]spiro[6H-thieno[3,4-b]thiophene-4,3′-azetidine]-3-carbonitrile] | > 8.00 | > 8.00 | > 8.00 | – | – | > 8.00
CN(Cc1c(F)ccnc1N)c1nc(OC[C@@]23CCCN2C[C@H](F)C3)nc(N2CC3(C2)SCc2sc(N)c(C#N)c23)n1 [Compound 179, 2-amino-1′-[4-[(2-amino-4-fluoro-3-pyridyl)methyl-methyl-amino]-6-[[(2R,8S)-2-fluoro-1,2,3,5,6,7-hexahydropyrrolizin-8-yl]methoxy]-1,3,5-triazin-2-yl]spiro[6H-thieno[2,3-c]thiophene-4,3′-azetidine]-3-carbonitrile] | 7.00 to 8.00 | 7.00 to 8.00 | > 8.00 | 6.00 to 7.00 | – | –
C[C@]1(O)CN(c2nc(OC[C@@]34CCCN3C[C@H](F)C4)nc(N3CC4(CCc5sc(N)c(C#N)c54)C3)n2)CC[C@@H]1O (racemic) [Compound 62, 2-amino-1′-[4-[rac-(3S,4S)-3,4-dihydroxy-3-methyl-1-piperidyl]-6-[[(2R,8S)-2-fluoro-1,2,3,5,6,7-hexahydropyrrolizin-8-yl]methoxy]-1,3,5-triazin-2-yl]spiro[5,6-dihydrocyclopenta[b]thiophene-4,3′-azetidine]-3-carbonitrile] | ≤ 4.70 | 6.00 to 7.00 | 6.00 to 7.00 | ≤ 4.70 | – | –
C[C@H](c1cccnc1N)N(CCC#N)c1nc(OCC2(CN3CCOCC3)CC2)nc(N2CC3(C2)SCc2sc(N)c(C#N)c23)n1 [Compound 148, (R)-2′-amino-1-(4-((1-(2-aminopyridin-3-yl)ethyl)(2-cyanoethyl)amino)-6-((1-(morpholinomethyl)cyclopropyl)methoxy)-1,3,5-triazin-2-yl)-6′H-spiro[azetidine-3,4′-thieno[3,4-b]thiophene]-3′-carbonitrile] | > 8.00 | > 8.00 | > 8.00 | 7.00 to 8.00 | – | –
CC1(O)CC(F)CN(c2nc(OCC3(CN4CCOCC4)CC3)nc(N3CC4(CCc5sc(N)c(C#N)c54)C3)n2)C1 (stereo not drawn) [Compound 93, 2′-amino-1-(4-(5-fluoro-3-hydroxy-3-methylpiperidin-1-yl)-6-((1-(morpholinomethyl)cyclopropyl)methoxy)-1,3,5-triazin-2-yl)-5′,6′-dihydrospiro[azetidine-3,4′-cyclopenta[b]thiophene]-3′-carbonitrile] | 7.00 to 8.00 | > 8.00 | > 8.00 | 7.00 to 8.00 | – | –
C[C@@]1(O)C[C@@H](O)CN(c2nc(OC[C@@]34CCCN3C[C@H](F)C4)nc(N3CC4(CCc5sc(N)c(C#N)c54)C3)n2)C1 [Compound 47, 2-amino-1′-[4-[(3R,5R)-3,5-dihydroxy-3-methyl-1-piperidyl]-6-[[(2R,8S)-2-fluoro-1,2,3,5,6,7-hexahydropyrrolizin-8-yl]methoxy]-1,3,5-triazin-2-yl]spiro[5,6-dihydrocyclopenta[b]thiophene-4,3′-azetidine]-3-carbonitrile] | ≤ 4.70 | > 8.00 | > 8.00 | 6.00 to 7.00 | – | –
CC(c1nsnc1N)N(C)c1nc(OC[C@@]23CCCN2C[C@H](F)C3)nc(N2CC3(CCc4sc(N)c(C#N)c43)C2)n1 (stereo partly drawn) [Compound 170, -amino-1′-[4-[1-(4-amino-1,2,5-thiadiazol-3-yl)ethyl-methyl-amino]-6-[[(2R,8S)-2-fluoro-1,2,3,5,6,7-hexahydropyrrolizin-8-yl]methoxy]-1,3,5-triazin-2-yl]spiro[5,6-dihydrocyclopenta[b]thiophene-4,3′-azetidine]-3-carbonitrile] | 7.00 to 8.00 | 7.00 to 8.00 | > 8.00 | 6.00 to 7.00 | – | –
N#Cc1c(N)sc2c1C1(CC2)CN(c2nc(OCC3(CN4CCOCC4)CC3)nc(N3CCCC(O)(C(F)F)C3)n2)C1 (stereo not drawn) [Compound 106, 2-amino-1′-[4-[3-(difluoromethyl)-3-hydroxy-1-piperidyl]-6-[[1-(morpholinomethyl)cyclopropyl]methoxy]-1,3,5-triazin-2-yl]spiro[5,6-dihydrocyclopenta[b]thiophene-4,3′-azetidine]-3-carbonitrile] | 4.70 to 6.00 | 7.00 to 8.00 | 7.00 to 8.00 | 6.00 to 7.00 | – | –
N#Cc1c(N)sc2c1C1(CC2)CN(c2nc(OC[C@@]34CCCN3C[C@H](F)C4)nc(N3CCCC4(C3)NC(=O)NC4=O)n2)C1 (stereo partly drawn) [Compound 45, 2-amino-1′-[4-(2,4-dioxo-1,3,9-triazaspiro[4.5]decan-9-yl)-6-[[(2R,8S)-2-fluoro-1,2,3,5,6,7-hexahydropyrrolizin-8-yl]methoxy]-1,3,5-triazin-2-yl]spiro[5,6-dihydrocyclopenta[b]thiophene-4,3′-azetidine]-3-carbonitrile] | 4.70 to 6.00 | > 8.00 | > 8.00 | 6.00 to 7.00 | – | –

Source: patent publication US12421254B2, “KRAS modulators and uses thereof” (Quanta Therapeutics, Inc., priority 2023, dated 2025)
